Results taken from patent publication US11408900B2, “Secreted P-glycoprotein is a non-invasive biomarker of chronic rhinosinusitis” (Massachusetts Eye and Ear Infirmary, priority 2016, dated 2022).

Tests used:
P-gp = P-gp (Homo sapiens, UniProt P08183); conditions: cited from earlier work
[1] = system: healthy patient derived epithelial cell cultures (HSNECCs); assay: Quantitative fluorescent immunocytochemistry for membranous P-gp (CTCF) after recombinant P-gp exposure; assay type: cell-based, human; conditions: 24 hours
Experimental: (§1) HSNECCs from 7 control patients and 6 CRS patients were grown as previously described^8. Briefly, mucosal samples were washed and digested in Pronase for 90 minutes at 37° C. Cell suspensions were separated from particulate matter by centrifugation and resuspended in bronchial epithelial growth media (BEGM). Cells were plated for 2 hours on standard tissue culture plates to remove contaminating fibroblasts. Cells were then expanded for 3-5 days on human collagen type IV-coated (Collagen from human placenta, Bornstein and Traub Type IV, Sigma Aldrich, St. Louis, Mo.) 75 cm^2 dishes (Corning Life Sciences, Corning, N.Y.). […]
Fluorescent staining intensity was quantified according to previously described techniques^9. Briefly, 20× fields were chosen and images were analyzed in Image J v1.49t. The cells and 3 background areas were circled in Image J using the free hand sections tool and the integrated density, area of selected cell, and mean fluorescence of the backgrounds were measured using the region of interest (ROI) manager. The corrected total cell fluorescence (CTCF) was calculated as the integrated density−(area of selected cell×mean fluorescence of background readings). […]

[2] = system: healthy patient derived epithelial cell cultures (HSNECCs); assay: Calcein AM P-glycoprotein activity assay after recombinant P-gp exposure; assay type: cell-based, human; conditions: 24 hours, n=7
Experimental: as §1
A calcein AM assay was performed to determine whether the interpolated P-gp was functional following 24 hours of recombinant P-gp exposure as described above. […] After 15 minutes, each well was washed 3 times with cold phosphate buffered saline and the calcein fluorescence within each well was quantified using a spectrophotometer (Molecular Devices SpectraMax M5, Sunnyvale, Calif.) at an excitation and emission wavelength of 494 nm and 517 nm, respectively. A decrease in fluorescence was considered an indication of increased P-gp function as previously described^4.

HSNECCs = assay: Epithelial cytokine secretion (IL-6, IL-8, TSLP) by ELISA after exosome exposure with or without Zosuquidar; assay type: cell-based, human; conditions: 0.625 μM Zosuquidar, CRSwNP relative to control
Experimental: Control wells were those exposed to vehicle control alone. Following exposure, the media was collected from each well. Cytokine concentrations for TSLP (Thymic Stromal Derived Lymphopoietin), Interleukin (IL)-6, and IL-8 were determined by ELISA according to the manufactures guidelines (eBioscience, San Diego, Calif.). All secreted cytokine concentrations were normalized to total protein concentrations using the Micro BCA Protein Assay Kit (Pierce, Rockford, Ill.).

Sequence of P-gp (P08183 whole entry): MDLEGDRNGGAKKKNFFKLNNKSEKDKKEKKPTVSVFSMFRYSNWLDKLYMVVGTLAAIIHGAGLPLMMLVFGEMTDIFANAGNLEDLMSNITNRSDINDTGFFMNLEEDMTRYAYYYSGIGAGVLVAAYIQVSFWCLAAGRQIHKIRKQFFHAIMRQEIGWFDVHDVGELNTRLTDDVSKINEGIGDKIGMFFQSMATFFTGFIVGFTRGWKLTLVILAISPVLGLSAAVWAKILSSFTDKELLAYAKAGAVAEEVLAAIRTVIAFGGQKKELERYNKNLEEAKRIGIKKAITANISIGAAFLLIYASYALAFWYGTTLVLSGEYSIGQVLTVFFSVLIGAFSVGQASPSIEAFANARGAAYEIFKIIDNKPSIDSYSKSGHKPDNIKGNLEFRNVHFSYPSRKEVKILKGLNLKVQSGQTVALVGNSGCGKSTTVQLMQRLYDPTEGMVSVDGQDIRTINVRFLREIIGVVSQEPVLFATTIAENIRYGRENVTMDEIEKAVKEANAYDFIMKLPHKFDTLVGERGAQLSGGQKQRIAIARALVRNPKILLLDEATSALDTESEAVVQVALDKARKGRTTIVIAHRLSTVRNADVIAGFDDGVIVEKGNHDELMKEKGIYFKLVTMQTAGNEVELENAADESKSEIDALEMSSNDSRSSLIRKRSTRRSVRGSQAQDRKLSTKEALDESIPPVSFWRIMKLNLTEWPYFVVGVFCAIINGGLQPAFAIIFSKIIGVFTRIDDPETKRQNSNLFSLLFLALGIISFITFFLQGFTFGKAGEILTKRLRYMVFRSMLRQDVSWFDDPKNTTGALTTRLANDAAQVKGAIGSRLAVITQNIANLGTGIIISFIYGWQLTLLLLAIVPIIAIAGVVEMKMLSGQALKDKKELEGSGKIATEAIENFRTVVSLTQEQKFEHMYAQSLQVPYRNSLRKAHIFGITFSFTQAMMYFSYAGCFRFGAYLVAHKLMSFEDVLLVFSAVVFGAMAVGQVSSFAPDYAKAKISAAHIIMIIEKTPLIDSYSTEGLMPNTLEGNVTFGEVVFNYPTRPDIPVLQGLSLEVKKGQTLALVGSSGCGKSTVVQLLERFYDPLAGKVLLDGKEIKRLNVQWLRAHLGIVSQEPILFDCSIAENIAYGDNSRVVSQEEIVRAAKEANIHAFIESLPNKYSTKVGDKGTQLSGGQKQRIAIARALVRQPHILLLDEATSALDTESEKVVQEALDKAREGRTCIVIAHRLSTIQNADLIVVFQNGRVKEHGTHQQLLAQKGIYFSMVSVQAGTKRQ

Q: Which “potency relative to the first and second-generation inhibitors” value (P-gp) does the source give for `COc1cc2c(cc1OC)CN(CCc1ccc(NC(=O)c3cc(OC)c(OC)cc3NC(=O)c3cnc4ccccc4c3)cc1)CC2` [XR9576, N-[2-[[4-[2-(6,7-Dimethoxy-3,4-dihydro-1H-isoquinolin-2-yl)ethyl]phenyl]carbamoyl]-4,5-dimethoxyphenyl]quinoline-3-carboxamide] here?
A: about 10 fold

Q: What does the source list for “recombinant human P-gp: recombinant human P-glycoprotein (USCN Life Sciences Inc.)”?
A: CTCF (corrected total cell fluorescence) of P-gp staining ([1]; 2000 ng/mL recombinant human P-gp, n=7): 1.34+/−1.85; change in CTCF of P-gp staining ([1]; 100-2000 ng/mL exogenous recombinant human P-gp): dose dependent increase; mean calcein fluorescence ([2]; 100 ng/mL dose): 123.11+/−42.16; mean calcein fluorescence ([2]; 2000 ng/mL dose): 82.03+/−43.69

Q: For `CCOC/C=C/c1ccc(-c2nc(-c3ccc(NC(C)C)cc3)c(-c3ccc(NC(C)C)cc3)[nH]2)cc1` [OC144093, 4-[2-[4-[(E)-3-ethoxyprop-1-enyl]phenyl]-4-[4-(propan-2-ylamino)phenyl]-1H-imidazol-5-yl]-N-propan-2-ylaniline], which “potency relative to the first and second-generation inhibitors” value (P-gp) is on record?
A: about 10 fold

Q: For `Cl.Cl.Cl.O[C@@H](COc1cccc2ncccc12)CN1CCN([C@@H]2c3ccccc3[C@@H]3[C@H](c4ccccc42)C3(F)F)CC1` [Zosuquidar, (2R)-1-{4-[(1aR,6r,10bS)-1,1-Difluoro-1,1a,6,10b-tetrahydrodibenzo[a,e]cyclopropa[c]cyclohepten-6-yl]piperazin-1-yl}-3-(quinolin-5-yloxy)propan-2-ol,trihydrochloride], which “effect on exosome induced increase in IL-6 secretion” value (HSNECCs) is on record?
A: abrogated

Q: And the “effect on exosome induced increase in IL-8 secretion” value (HSNECCs)?
A: abrogated
